{"source": "patent US8329447B2", "about": "“Strain of Lactobacillus crispatus” (Osel, Inc., priority 2008, dated 2012)", "note": "“Also recorded” adds a separate entry of the source."}
{"tested_on": "SJ-3C cells", "test": "Agar overlay disc diffusion antibiotic susceptibility", "type": "cell-based, Lactobacillus crispatus", "details": "BBL Sensi-Disc on MRS agar overlay, 37° C. overnight anaerobically"}
{"compound": "Cc1noc(NS(=O)(=O)c2ccc(N)cc2)c1C", "note": "[sulfisoxazole]", "antibiotic susceptibility or resistance of SJ-3C": "resistance"}
{"compound": "Cc1ncc([N+](=O)[O-])n1CCO", "note": "[metronidazole]", "antibiotic susceptibility or resistance of SJ-3C": "resistance"}
{"compound": "O=C(O)c1cn(C2CC2)c2cc(N3CCNCC3)c(F)cc2c1=O", "note": "[ciprofloxacin]", "antibiotic susceptibility or resistance of SJ-3C": "resistance"}
{"compound": "gentamicin", "antibiotic susceptibility or resistance of SJ-3C": "resistance"}
{"compound": "C[C@@H]1O[C@@H]1P(=O)(O)O", "note": "[fosfomycin]", "antibiotic susceptibility or resistance of SJ-3C": "resistance"}
{"compound": "CCC[C@@H]1C[C@@H](C(=O)N[C@@H]([C@H]2O[C@H](SC)[C@H](O)[C@@H](O)[C@H]2O)[C@@H](C)O)N(C)C1", "note": "[lincomycin]", "antibiotic susceptibility or resistance of SJ-3C": "resistance; also recorded: resistant"}
{"compound": "sulfamethoxazole-trimethoprim", "antibiotic susceptibility or resistance of SJ-3C": "resistance"}
